Assay results reported in PMC11992225, “Antibacterial compounds against non-growing and intracellular bacteria” (npj Antimicrobials and Resistance, 2025).
≈ marks a conversion by molar mass, not a printed value. Where “and” joins values, the source holds several entries; their conditions need not be identical. Equal values may be shown once.

Columns and labels:
S. aureus DSM2569 = experiment: MIC, standard microdilution assay, growing S. aureus; assay type: cell-based, Staphylococcus aureus; settings: Staphylococcus aureus, DSM2569; S. aureus; CA-MHB pH 7.4; read-out: MIC (μM) CA-MHB
Outline: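 MICs come from microdilution in CA-MHB/40 mM HEPES pH 7.4 for the UPEC, Pseudomonas and Staphylococcus strains, and in TSB for Shigella. UPEC also tested in LPM/30 mM MES pH 5.5.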

non-growing UPEC CFT073 [1] = experiment: Dilution-regrowth assay (screen, hit validation, dose-response) on stationary-phase UPEC; assay type: cell-based, Escherichia coli; settings: for Regrowth, OD600 at 6h or 8h after dilution into drug-free medium: average
Outline: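 Regrowth (OD600 after 6 h, 37 °C) of diluted non-growing CFT073, following 24 h compound treatment of 24 h stationary cultures, defines activity relative to untreated control. Screen at 20 µM, validation at 20, 10, 5 µM (duplicates), dose–response in three biological replicates fitted by five-parameter logistic.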

non-growing UPEC CFT073 [2] = experiment: Dose-dependent killing analysis (CFU spot-plating) of stationary-phase UPEC; assay type: cell-based, Escherichia coli; settings: individual replicates
Method: To differentiate between these scenarios, we used CFU counting by agar plating to assess the bactericidal effect on non-growing bacteria. […] Conversely, if no significant reduction in CFU is observed, the regrowth delay is due to PAE without killing. […] Fluoroquinolones are known to cause PAE after treatment of growing bacterial cultures.
(§1) For survival analysis, bacteria were cultivated as described for the dose–response dilution-regrowth assay. Assays with UPEC were conducted at the CBCS screening facility using 96-well plates with a 200 μl sample volume, and compounds were dispensed using the Echo® (Labcyte) system. P. aeruginosa and S. aureus samples were treated according to the protocol used for the dilution-regrowth experiments. Treated samples were serially diluted 10-fold in PBS, and 10 μl drops were spot-plated onto rectangular LB agar plates using either a Beckman NXP robot (for UPEC) or an Integra VIAFLO96 electronic pipette (for P. aeruginosa and S. aureus). The LB agar plates were incubated overnight at 37 °C and scanned. Colonies were counted at the spots of the lowest dilution where individual colonies could be accurately distinguished. Each colony was manually marked on a separate image layer using the GNU Image Manipulation Program, and counted using NIST’s Integrated Colony Enumerator (NICE 1.4) software. The experiments were performed in three biological replicates.

[3] = test system: non-growing P. aeruginosa DSM1117; experiment: Dose-dependent killing analysis (CFU spot-plating) of stationary-phase P. aeruginosa; assay type: cell-based, Pseudomonas aeruginosa; settings: for log10(CFU/ml) after treatment / killing, average Δlog10(CFU/ml): P. aeruginosa; for log10(CFU/ml) after treatment: individual replicates; for killing, average Δlog10(CFU/ml): vs CFU before treatment
Method: The cultures were grown and treated for 24 h in 1:4 CA-MHB (pH 7.4).
as §1

[4] = E. coli in 1:4 CA-MHB (pH 7.4), concentration 0.25
[5] = E. coli in 1:4 CA-MHB (pH 7.4), concentration 0.5
[6] = E. coli in 1:4 CA-MHB (pH 7.4), concentration 1
[7] = E. coli in 1:4 CA-MHB (pH 7.4), concentration 2.5
[8] = E. coli in 1:4 CA-MHB (pH 7.4), concentration 5
[9] = E. coli in 1:4 CA-MHB (pH 7.4), concentration 10
[10] = E. coli in LPM (pH 5.5), concentration 0.25
[11] = E. coli in LPM (pH 5.5), concentration 0.5
[12] = E. coli in LPM (pH 5.5), concentration 1
[13] = E. coli in LPM (pH 5.5), concentration 2.5
[14] = E. coli in LPM (pH 5.5), concentration 5
[15] = E. coli in LPM (pH 5.5), concentration 10

CO/N=C1\CN(c2nc3c(cc2F)c(=O)c(C(=O)O)cn3C2CC2)CC1CN (stereo not shown) [Gemifloxacin]
MIC (S. aureus DSM2569): 0.125 µM (≈ 0.0487 µg/mL) | Regrowth, OD600 at 6h or 8h after dilution into drug-free medium (non-growing UPEC CFT073 [1]; [4]): 0.556 | Regrowth, OD600 at 6h or 8h after dilution into drug-free medium (non-growing UPEC CFT073 [1]; [5]): 0.511 | Regrowth, OD600 at 6h or 8h after dilution into drug-free medium (non-growing UPEC CFT073 [1]; [6]): 0.206 | Regrowth, OD600 at 6h or 8h after dilution into drug-free medium (non-growing UPEC CFT073 [1]; [7]): 0.090 | Regrowth, OD600 at 6h or 8h after dilution into drug-free medium (non-growing UPEC CFT073 [1]; [8]): 0.086 | Regrowth, OD600 at 6h or 8h after dilution into drug-free medium (non-growing UPEC CFT073 [1]; [9]): 0.083 | Regrowth, OD600 at 6h or 8h after dilution into drug-free medium (non-growing UPEC CFT073 [1]; E. coli in 1:4 CA-MHB (pH 7.4), concentration 30): 0.082 | Regrowth, OD600 at 6h or 8h after dilution into drug-free medium (non-growing UPEC CFT073 [1]; [10]): 0.559 | Regrowth, OD600 at 6h or 8h after dilution into drug-free medium (non-growing UPEC CFT073 [1]; [11]): 0.564 | Regrowth, OD600 at 6h or 8h after dilution into drug-free medium (non-growing UPEC CFT073 [1]; [12]): 0.562 | Regrowth, OD600 at 6h or 8h after dilution into drug-free medium (non-growing UPEC CFT073 [1]; [13]): 0.529 | Regrowth, OD600 at 6h or 8h after dilution into drug-free medium (non-growing UPEC CFT073 [1]; [14]): 0.513 | Regrowth, OD600 at 6h or 8h after dilution into drug-free medium (non-growing UPEC CFT073 [1]; [15]): 0.417 | Regrowth, OD600 at 6h or 8h after dilution into drug-free medium (non-growing UPEC CFT073 [1]; E. coli in LPM (pH 5.5), concentration 30): 0.143 | EC50 (non-growing UPEC CFT073 [1]; Escherichia coli, E. coli, pH 7.4, regrowth delay of non-growing bacteria, 1:4 CA-MHB, 24 h treatment, OD600 6 h after 2500-fold dilution, read-out: EC50): 0.752 µM | log10(CFU/ml) after treatment (non-growing UPEC CFT073 [2]; [4]): 9.342 log10(CFU/ml) and 9.204 log10(CFU/ml) and 8.505 log10(CFU/ml) | log10(CFU/ml) after treatment (non-growing UPEC CFT073 [2]; [5]): 8.845 log10(CFU/ml) and 8.778 log10(CFU/ml) and 8.000 log10(CFU/ml) | log10(CFU/ml) after treatment (non-growing UPEC CFT073 [2]; [6]): 8.699 log10(CFU/ml) and 8.079 log10(CFU/ml) and 7.301 log10(CFU/ml) | log10(CFU/ml) after treatment (non-growing UPEC CFT073 [2]; [7]): 8.230 log10(CFU/ml) and 7.602 log10(CFU/ml) and 7.301 log10(CFU/ml) | log10(CFU/ml) after treatment (non-growing UPEC CFT073 [2]; [8]): 7.903 log10(CFU/ml) and 7.415 log10(CFU/ml) and 7.322 log10(CFU/ml) | log10(CFU/ml) after treatment (non-growing UPEC CFT073 [2]; [9]): 8.146 log10(CFU/ml) and 7.041 log10(CFU/ml) and 6.602 log10(CFU/ml) | log10(CFU/ml) after treatment (non-growing UPEC CFT073 [2]; [10]): 6.778 log10(CFU/ml) and 7.146 log10(CFU/ml) and 8.322 log10(CFU/ml) | log10(CFU/ml) after treatment (non-growing UPEC CFT073 [2]; [11]): 7.000 log10(CFU/ml) and 7.255 log10(CFU/ml) and 8.301 log10(CFU/ml) | log10(CFU/ml) after treatment (non-growing UPEC CFT073 [2]; [12]): 7.041 log10(CFU/ml) and 7.362 log10(CFU/ml) and 8.079 log10(CFU/ml) | log10(CFU/ml) after treatment (non-growing UPEC CFT073 [2]; [13]): 6.778 log10(CFU/ml) and 7.255 log10(CFU/ml) and 8.230 log10(CFU/ml) | log10(CFU/ml) after treatment (non-growing UPEC CFT073 [2]; [14]): 7.230 log10(CFU/ml) and 7.380 log10(CFU/ml) and 8.146 log10(CFU/ml) | log10(CFU/ml) after treatment (non-growing UPEC CFT073 [2]; [15]): 7.176 log10(CFU/ml) (2×) and 8.230 log10(CFU/ml) | log10(CFU/ml) after treatment ([3]; concentration 0.1): 8.477 log10(CFU/ml) and 8.778 log10(CFU/ml) and 8.114 log10(CFU/ml) | killing, average Δlog10(CFU/ml) ([3]; concentration 0.1): 0.431 log10(CFU/ml) | log10(CFU/ml) after treatment ([3]; concentration 0.5): 7.699 log10(CFU/ml) (2×) and 7.477 log10(CFU/ml) | killing, average Δlog10(CFU/ml) ([3]; concentration 0.5): 1.262 log10(CFU/ml) | log10(CFU/ml) after treatment ([3]; concentration 2.5): =<4 log10(CFU/ml) (2×) and 4.954 log10(CFU/ml) | killing, average Δlog10(CFU/ml) ([3]; concentration 2.5): 4.569 log10(CFU/ml) | log10(CFU/ml) after treatment ([3]; concentration 10): =<4 log10(CFU/ml) (2×) and 4.477 log10(CFU/ml) | killing, average Δlog10(CFU/ml) ([3]; concentration 10): 4.728 log10(CFU/ml) | reduction of bacterial counts, non-growing P. aeruginosa ([3]; at 2.5 µM, 1:4 CA-MHB pH 7.4, 24 h treatment): more than four
